Data: US7718653B2, “Pyrimidine derivatives for inhibiting Eph receptors” (AstraZeneca AB, priority 2007, dated 2010)

Molecular target: T1, EphB4 (Homo sapiens, UniProt P54760)
T1 construct: to generate full-length EphB4 containing a Myc-His tag at the C-terminus; expressed in transfected cells; EphB4-CHO)
T1 sequence (P54760 16-987): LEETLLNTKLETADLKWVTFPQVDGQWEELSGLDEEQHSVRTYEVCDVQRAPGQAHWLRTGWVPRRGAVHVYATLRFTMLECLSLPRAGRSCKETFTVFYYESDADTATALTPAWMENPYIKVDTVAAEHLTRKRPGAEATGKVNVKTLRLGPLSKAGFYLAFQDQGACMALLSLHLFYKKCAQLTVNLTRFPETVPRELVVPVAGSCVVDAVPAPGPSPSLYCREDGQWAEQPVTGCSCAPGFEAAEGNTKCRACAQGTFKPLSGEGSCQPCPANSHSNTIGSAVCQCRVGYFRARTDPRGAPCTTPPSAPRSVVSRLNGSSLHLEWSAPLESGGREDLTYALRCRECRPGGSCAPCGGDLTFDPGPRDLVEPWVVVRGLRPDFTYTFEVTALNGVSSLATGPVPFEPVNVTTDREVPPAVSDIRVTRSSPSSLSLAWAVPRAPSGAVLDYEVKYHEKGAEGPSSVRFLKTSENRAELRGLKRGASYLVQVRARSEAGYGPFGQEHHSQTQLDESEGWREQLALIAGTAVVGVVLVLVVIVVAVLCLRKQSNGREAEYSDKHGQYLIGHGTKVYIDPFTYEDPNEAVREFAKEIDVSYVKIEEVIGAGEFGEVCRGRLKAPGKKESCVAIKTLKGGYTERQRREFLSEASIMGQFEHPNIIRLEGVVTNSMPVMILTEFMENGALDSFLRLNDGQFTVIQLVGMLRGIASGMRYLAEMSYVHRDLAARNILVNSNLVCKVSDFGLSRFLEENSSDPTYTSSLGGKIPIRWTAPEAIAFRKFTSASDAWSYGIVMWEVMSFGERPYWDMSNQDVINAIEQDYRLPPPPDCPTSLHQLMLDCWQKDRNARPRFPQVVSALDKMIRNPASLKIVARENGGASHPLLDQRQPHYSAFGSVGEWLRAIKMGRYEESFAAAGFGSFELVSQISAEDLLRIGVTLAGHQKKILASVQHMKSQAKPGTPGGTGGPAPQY
Experiment: In vitro EphB4 cell assay (EphB4 phosphorylation in EphB4-CHO cells, sandwich ELISA)
Assay type: cell-based
Details: stimulated with clustered ephrin-B2, read-out: IC50 in assay B
Method: B) In vitro EphB4 Cell Assay
The assay identifies inhibitors of cellular EphB4 by measuring a decrease in phosphorylation of EphB4 following treatment of cells with compound. The endpoint assay used a sandwich ELISA to detect EphB4 phosphorylation status. Briefly, Myc-tagged EphB4 from treated cell lysate was captured on the ELISA plate via an anti-c-Myc antibody. The phosphorylation status of captured EphB4 was then measured using a generic phosphotyrosine antibody conjugated to HRP via a colourimetric output catalysed by HRP, with level of EphB4 phosphorylation directly proportional to the colour intensity. Absorbance was measured spectrophotometrically at 450 nm.
Full length human EphB4 (Swiss-Prot Acc. No. P54760) was cloned using standard techniques from cDNA prepared from HUVEC using RT-PCR. The cDNA fragment was then sub-cloned into a pcDNA3.1 expression vector containing a Myc-His epitope tag to generate full-length EphB4 containing a Myc-His tag at the C-terminus (Invitrogen Ltd. Paisley, UK). CHO-K^1 cells (LGC Promochem, Teddington, Middlesex, UK, Catalogue No. CCL-61) were maintained in HAM's F12 medium (Sigma-Aldrich Company Ltd, Gillingham, Dorset SP8 4XT, Catalogue No. N4888) containing 10% heat-inactivated foetal calf serum (PAA lab GmbH, Pasching, Austria Catalogue No. PAA-A15-043) and 1% glutamax-1 (Invitrogen Ltd., Catalogue No. 35050-038) at 37° C. with 5% CO2. […]

IC50: 26 nM
SMILES: c1cc(Nc2ccnc(Nc3cc(N4CCOCC4)nc(N4CCOCC4)c3)n2)c2cn[nH]c2c1 [Example 3, N2-(2,6-dimorpholinopyridin-4-yl)-N4-(1H-indazol-4-yl)pyrimidine-2,4-diamine]
